Here are results for four compounds from ChEMBL document CHEMBL3808381, “Structural Requirements and Docking Analysis of Amidine-Based Sphingosine Kinase 1 Inhibitors Containing Oxadiazoles” (ACS Med Chem Lett, 2016).

Usually Ki stands for a dissociation constant, usually derived from enzyme kinetics or from competition with a known ligand. Lower therefore signals higher affinity.

One assay has as its target Sphingosine kinase 1 (Homo sapiens, UniProt Q9NYA1). The assay can be described thus: Inhibition of human SphK1 expressed in baculovirus infected in Sf9 cells using D-erythro-sphingosine as substrate and [gamma-32P]ATP by scintillation counting method.
Another assay has as its target T1, Sphingosine kinase 2 (Homo sapiens, UniProt Q9NRA0).
T1 sequence (Q9NRA0 whole entry): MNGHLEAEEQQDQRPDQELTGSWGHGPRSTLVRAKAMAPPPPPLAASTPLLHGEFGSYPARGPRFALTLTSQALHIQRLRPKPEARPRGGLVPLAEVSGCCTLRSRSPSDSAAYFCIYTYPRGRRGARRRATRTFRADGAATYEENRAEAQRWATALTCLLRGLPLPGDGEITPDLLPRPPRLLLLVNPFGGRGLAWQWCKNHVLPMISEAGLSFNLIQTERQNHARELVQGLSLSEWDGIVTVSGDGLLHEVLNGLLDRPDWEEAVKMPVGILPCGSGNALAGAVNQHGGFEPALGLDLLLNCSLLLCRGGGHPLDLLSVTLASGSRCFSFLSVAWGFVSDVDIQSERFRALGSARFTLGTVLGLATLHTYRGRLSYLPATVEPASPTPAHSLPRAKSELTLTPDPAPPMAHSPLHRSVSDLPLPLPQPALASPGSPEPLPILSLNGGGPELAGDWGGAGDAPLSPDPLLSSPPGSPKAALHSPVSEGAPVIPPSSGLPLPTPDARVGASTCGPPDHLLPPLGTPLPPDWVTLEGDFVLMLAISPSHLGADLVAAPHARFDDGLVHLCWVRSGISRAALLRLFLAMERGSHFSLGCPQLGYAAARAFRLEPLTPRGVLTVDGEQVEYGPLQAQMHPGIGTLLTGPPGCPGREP
The assay can be described thus: Inhibition of human SphK2 expressed in baculovirus infected in Sf9 cells using D-erythro-sphingosine as substrate and [gamma-32P]ATP by scintillation counting method.

Sequence of Sphingosine kinase 1 (Q9NYA1 whole entry): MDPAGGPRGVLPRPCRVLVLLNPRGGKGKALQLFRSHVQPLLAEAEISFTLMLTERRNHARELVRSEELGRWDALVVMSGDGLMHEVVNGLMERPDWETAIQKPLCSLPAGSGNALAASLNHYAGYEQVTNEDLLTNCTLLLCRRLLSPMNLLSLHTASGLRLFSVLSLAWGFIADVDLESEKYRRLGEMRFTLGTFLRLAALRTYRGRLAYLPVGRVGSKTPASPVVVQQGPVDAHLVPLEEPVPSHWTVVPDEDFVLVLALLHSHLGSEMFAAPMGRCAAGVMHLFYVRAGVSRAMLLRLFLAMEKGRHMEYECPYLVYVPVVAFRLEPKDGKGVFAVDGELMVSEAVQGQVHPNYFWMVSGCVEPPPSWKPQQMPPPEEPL

With `CCCCCCCCCCCCCc1ccc(-c2noc(C3(C(=N)N)CC3)n2)cc1`, the Ki was determined as 2500 nM at Sphingosine kinase 1 and 11 µM at Sphingosine kinase 2.
Turning to `CCCCCCCCCCCCc1cccc(-c2noc(C3(C(=N)N)CC3)n2)c1`, the values for the Ki at Sphingosine kinase 1 and at Sphingosine kinase 2 were 40 nM and 14.1 µM, respectively.
The like results for `CCCCCCCCCCCc1cccc(-c2noc(C3(C(=N)N)CC3)n2)c1` were, in that order, 70 nM and 9.9 µM.
The like results for `CCCCCCCCCCCCc1ccc(-c2noc(C3(C(=N)N)CC3)n2)cc1` were, in that order, 320 nM and 6 µM.
